Measured values as given in patent US9023817B2, “Use of albiflorin for anti-depression” (priority 2009, dated 2015).
Structures can show the parent of a compound that is named as a salt. Marks after values point to notes of the source that are not given here.

Tests used:
[1] = tested on: rats with chronic stress induced depression model; assay: Open-field test, chronic stress induced depression; type: in vivo, SD rats; conditions: 3 mg/kg/day gavage for 21 days, 3 minutes, Hydrochloride
Method: (§1) The gavage was carried out along with the model establishment, once a day, for 21 days. […] Referring to the methods in the literature (Xu Jing, Li Xiaoqiu, Establishment and evaluation of the model of chronic stress induced depression, Chinese Journal of Behavioral Medical Science, 2003, 12(1): 14 16), the model was established (i.e., establishing animal model of anti-depression by means of CUMS): the foot electric shock (voltage: […] (5 minutes), drying at 45° C. (5 minutes), tail nipping (1 min), wet feeding (wet mat), reversed day and night (24 hours), fasting (24 hours), water deprivation (24 hours) were randomly scheduled within 21 days, one kind of stimulations was given for each day, except for the animals of vehicle group, the others were separately caged with free diet, at the room temperature of (24±1)° C., with the relative humidity of (60±10)%. The open-field device was of 40 cm in height, 80 cm in both length and width, without cap, the inner walls and the bottom of the device are black, and the bottom was divided into 25 squares with equal area. The numbers of squares that the animals pass through were designated as the score of horizontal movement, and the numbers of standing (with the forelegs above 1 cm away from the ground) were designated as the score of vertical movement. Each animal was measured for one time, 3 minutes for each measurement. All parameters to be tested were expressed as Mean±SD (X±s), and tested by means of analysis of variance (ANOVA) in SPSS 12.0 software (purchased from SPSS Inc., USA), p<0.05 means that there was a significant difference.

[2] = tested on: rats with chronic stress induced depression model; assay: Body weights of rats with chronic stress induced depression (CUMS); type: in vivo, SD rats; conditions: 3 mg/kg/day gavage
Method: as §1, with “(60±10)%.” for “(60±10)%. The open-field device was of 40 cm in height, 80 cm in both length and width, without cap, the inner walls and the bottom of the device are black, and the bottom was divided into 25 squares with equal area. The numbers of squares that the animals pass through were designated as the score of horizontal movement, and the numbers of standing (with the forelegs above 1 cm away from the ground) were designated as the score of vertical movement. Each animal was measured for one time, 3 minutes for each measurement.”

ICR mice [3] = assay: Tail suspension test in mice, administration by gavage; type: in vivo; conditions: 1 h after administration, over 4 min; for Immobility Time (s): listed as paeoniflorin
Method: In the second day, 1 h after the administration, the tail of mouse (2 cm away from the tip of the tail) was fixed to the connection line of 100 g tension transducer by adhesive plaster, and the mouse was hung upside down, with the head about 15 cm away from the experimental bench, two animals isolated from each other by a cardboard were simultaneously tested for each time. The transducer was connected to the Medlab bio-signals acquisition and processing system, after 2 min of adaption, the result over 4 min was recorded, and the immobility situation was converted into the time(s). The experimental data were expressed as X±SD, and the analysis of variance for the experimental results was carried out by SPSS 11.5 statistical software (purchased from SPSS Inc., USA).

ICR mice [4] = assay: Tail suspension test in mice, extract of Radix paeoniae alba; type: in vivo; conditions: 3.5 mg/kg/d gavage for 2 days; 1 hour after last administration; 4 min; Hydrochloride
Method: Each group was administered at a dosage of 0.2 ml/10 g body weight. The vehicle group was administered with deionized water by gavage once a day, for 2 days. The test was carried out at 1 hour after the last administration. The tail of mouse (2 cm away from the tip of the tail) was fixed to the connection line of 100 g tension transducer with adhesive plaster, and the mouse was hung upside down, with the head about 15 cm away from the experimental bench, the transducer was connected to the Medlab bio-signals acquisition and processing system, after 2 min of adaption, the immobility time(s) for 4 min was recorded.
The experimental data was expressed as X±s, analyzed by SPSS 13.0 statistical software by means of One-Way ANOVA test.

[5] = tested on: rats with chronic stress induced depression model; assay: Jump stair test, chronic stress induced depression; type: in vivo, SD rats; conditions: 3 mg/kg/day gavage for 21 days, 5 minutes, Hydrochloride; for Error times in testing period: after 24 hours
Method: The gavage was carried out along with the model establishment, once a day, for 21 days. […] Referring to the methods in the literature (Xu Jing, Li Xiaoqiu, Establishment and evaluation of the model of chronic stress induced depression, Chinese Journal of Behavioral Medical Science, 2003, 12(1): 14 16), the model was established (i.e., establishing animal model of anti-depression by means of CUMS): the foot electric shock (voltage: […] (5 minutes), drying at 45° C. (5 minutes), tail nipping (1 min), wet feeding (wet mat), reversed day and night (24 hours), fasting (24 hours), water deprivation (24 hours) were randomly scheduled within 21 days, one kind of stimulations was given for each day, except for the animals of vehicle group, the others were separately caged with free diet, at the room temperature of (24±1)° C., with the relative humidity of (60±10)%. […] A wooden platform (height: 5 cm, diameter: 8 cm) was placed into the box at the left back corner. Animals were placed into the response box to adapt to the environment for 3 minutes, and then the box was immediately electrified with […] alternating current, the normal response of the animal which suffered from electric shock was to jump onto the platform in order to avoid such harmful stimulation. Most animals were likely to jump down to the copper railings again or for several times, and then quickly jump back to the platform after suffering from the electric shock, being trained like this for 5 minutes, the times that the rats suffered from the electric shock were designated as error times. The test was carried out again after 24 hours, rats were placed on the platform and the box was charged, timing and recording the error times for 5 minutes. All parameters to be tested were expressed as Mean±SD (X±s), and tested by means of analysis of variance (ANOVA) in SPSS 12.0 software (purchased from SPSS Inc., USA), p<0.05 means that there was a significant difference.

[6] = tested on: rats with chronic stress induced depression model; assay: Consumption of 1% aqueous sucrose, chronic stress induced depression; type: in vivo, SD rats; conditions: 3 mg/kg/day gavage, 1% aqueous sucrose for 1 hour
Method: The gavage was carried out along with the model establishment, once a day, for 21 days. […] Referring to the methods in the literature (Xu Jing, Li Xiaoqiu, Establishment and evaluation of the model of chronic stress induced depression, Chinese Journal of Behavioral Medical Science, 2003, 12(1): 14 16), the model was established (i.e., establishing animal model of anti-depression by means of CUMS): the foot electric shock (voltage: […] (5 minutes), drying at 45° C. […] All parameters to be tested were expressed as Mean±SD (X±s), and tested by means of analysis of variance (ANOVA) in SPSS 12.0 software (purchased from SPSS Inc., USA), p<0.05 means that there was a significant difference.

ICR mice [7] = assay: Reserpine-induced hypothermia test in mice; type: in vivo; conditions: 3 mg/kg gavage 7 days, reserpine 2 mg/kg i.p., rectal temperature 4 hours after reserpine
Method: 50 mice were randomly divided into five groups (n=10 for each group): high-dose group (14 mg*kg^−1), medium-dose group (7 mg*kg^−1), low-dose group (3.5 mg*kg^−1) of Albiflorin; control group of paroxetine (3 mg/kg); model group of physiological saline. The gavage was carried out for 7 days. Rectal temperatures of mice were measured at 1 hour after the administration on the 8th day, then reserpine was administered by intraperitoneal injection at a dose of 2 mg/kg, rectal temperatures of mice were measured again at 4 hours after the injection of reserpine. The depth into anus of thermometer and the time for each temperature measurement of mice was coincident. The experimental data was expressed as X±SD, and the analysis of variance for the experimental results was carried out by SPSS 11.5 statistical software (purchased from SPSS Inc., USA), the experimental results were shown in Table 4.

ICR mice [8] = assay: Forced swimming test in mice; type: in vivo; conditions: 1 h after administration, last 4 min; for Immobility Time (s): listed as paeoniflorin
Method: Each group was administered by gavage at a dose of 0.2 ml/10 g weight, for two days, deionized water was administered to vehicle group.
In the second day, 1 h after the administration, the mice were placed separately into a water cylinder with 20 cm of height, 18 cm of diameter, 10 cm of depth, 23±2° C. of water temperature; observing each for 6 min, after 2 min of adaption, the immobility time over the last 4 min was recorded.
The data was expressed as x±s, analyzed by SPSS 13.0 statistical software by means of One-Way ANOVA test, the homogeneity of variance was tested by LSD and SNK test.

[9] = Day 14, listed as Positice control, Hydrochloride
[10] = Day 14, listed as Prozac, Hydrochloride
[11] = Day 21, listed as Positice control, Hydrochloride
[12] = Day 21, listed as Prozac, Hydrochloride
[13] = 3.5 mg/kg/d by gavage for two days
[14] = 7 mg/kg/d by gavage for two days
[15] = 14 mg/kg/d by gavage for two days

CNCCC(Oc1ccc(C(F)(F)F)cc1)c1ccccc1 (stereo not drawn) [Positive control, Fluoxetine Hydrochloride]
Score of horizontal movement ([1]; listed as Positice control): 28.09 ± 18.55 | Score of vertical movement ([1]; listed as Positice control): 7.00 ± 3.90 | Score of horizontal movement ([1]; listed as Prozac): significantly increased | Score of vertical movement ([1]; listed as Prozac): significantly increased | body weights ([2]; Day 0): 257.19 ± 9.90 g | body weights ([2]; Day 7): 265.90 ± 13.94 g | body weights [2, 9]: 280.64 ± 12.32 g | body weights [2, 10]: significantly increased | body weights [2, 11]: 291.00 ± 11.31 g | body weights [2, 12]: significantly increased | Immobility Time (ICR mice [3]; [13]): 66.21 ± 33.253 s | Immobility Time (ICR mice [4]): significantly reduced | Error times in training period [5]: 2.09 ± 1.22 | Error times in training period ([5]; listed as Prozac): significantly reduced | Error times in testing period [5]: 0.72 ± 1.19 | Error times in testing period ([5]; listed as Prozac): significantly reduced | comsumption of aqeous sucrose ([6]; Day 0): 12.67 ± 5.53 mL | comsumption of aqeous sucrose ([6]; Day 7): 10.00 ± 4.24 mL | comsumption of aqeous sucrose [6, 9]: 15.00 ± 2.22 mL | comsumption of aqeous sucrose [6, 10]: significantly increased | comsumption of aqeous sucrose [6, 11]: 14.91 ± 2.68 mL | comsumption of aqeous sucrose [6, 12]: significantly increased

Fc1ccc([C@@H]2CCNC[C@H]2COc2ccc3c(c2)OCO3)cc1 [Paroxetine]
Hypothermia value (° C.) (ICR mice [7]): 2.38 ± 0.69** ° C. | Hypothermia value (° C.) (ICR mice [7]; listed as paroxetine): significantly recede

C[C@@]12C[C@@]3(O)O[C@@H](O1)[C@]1(COC(=O)c4ccccc4)[C@H]3C[C@@]12O[C@@H]1O[C@H](CO)[C@@H](O)[C@H](O)[C@H]1O [Paeoniflorin]
Immobility Time (ICR mice [8]; [13]): 58.60 ± 32.320 s | Immobility Time (s) (ICR mice [8]; [13]): not significantly different from the model group | Immobility Time (ICR mice [8]; [14]): 43.94 ± 38.341 s | Immobility Time (s) (ICR mice [8]; [14]): not significantly different from the model group | Immobility Time (ICR mice [8]; [15]): 50.39 ± 31.257 s | Immobility Time (s) (ICR mice [8]; [15]): not significantly different from the model group | Immobility Time (ICR mice [3]; [13]): 85.62 ± 31.225 s | Immobility Time (s) (ICR mice [3]; [13]): not significantly different from the model group | Immobility Time (ICR mice [3]; [14]): 76.83 ± 36.452 s | Immobility Time (s) (ICR mice [3]; [14]): not significantly different from the model group | Immobility Time (ICR mice [3]; [15]): 81.32 ± 32.756 s | Immobility Time (s) (ICR mice [3]; [15]): not significantly different from the model group
